Assay results from ChEMBL document CHEMBL1938305, “Antioxidative oligostilbenes from Caragana sinica” (Bioorg Med Chem Lett, 2012).

Columns and labels:
[1] = test system: Radical scavenging activity; assay: Antioxidant activity assessed as DPPH free radical scavenging activity after 30 mins by microplate reader assay; type: functional
[2] = Antioxidant activity assessed as inhibition of lipid peroxidation; type: functional

Row | SMILES | IC50 [1] [µM] | IC50 [2] [µM]
1 | Oc1ccc([C@H]2c3c(O)cc(O)cc3[C@H]3c4c(O)cc(O)cc4[C@@H]2[C@H]3c2ccc(O)cc2)cc1 | > 200 | > 200
2 | Oc1ccc(C2[C@H]3c4cc(O)cc(O)c4[C@@H](c4ccc(O)cc4)[C@@H]2c2cc(O)cc(O)c23)cc1 (stereo partly drawn) | > 200 | > 200
3 | Oc1ccc([C@H]2Oc3cc(O)cc4c3[C@@H]2c2cc(O)cc3c2[C@@H](c2cc(O)cc5c2[C@@H]4[C@H](c2ccc(O)cc2)O5)[C@H](c2ccc(O)cc2)O3)cc1 (relative stereo) | > 200 | > 200
4 | Cc1c(C)c2c(c(C)c1O)CC[C@@](C)(CCC[C@H](C)CCC[C@H](C)CCCC(C)C)O2 [ALPHA-TOCOPHEROL] | – | 12.5
5 | O=C1O[C@H]([C@@H](O)CO)C(O)=C1O [ASCORBIC ACID] | 57.2 | –
6 | O=C(c1ccc(O)cc1)[C@H]1c2cc(O)cc(O)c2[C@@H](c2ccc(O)cc2)[C@H]1c1cc(O)cc(O)c1 [CARAPHENOL B] | 73.9 | 43.1

Next, values leading:

Row | IC50 [1] [µM] | IC50 [2] [µM] | SMILES
7 | 165 | 128 | Oc1ccc([C@@H]2c3c(O)cc(O)cc3[C@H]3[C@H](c4ccc(O)cc4)c4c(O)cc(O)cc4[C@@H]23)cc1 (relative stereo) [PALLIDOL]
8 | > 200 | > 200 | COc1cc(O)cc2c1C(=O)C(O)(Cc1ccc(O)cc1)O2 (stereo not drawn) [CARPUSIN]
9 | > 200 | > 200 | Oc1ccc([C@H]2Oc3cc(O)cc([C@@H]4[C@H](c5cc(O)cc(O)c5)[C@@H](c5ccc(O)cc5)O[C@H]4c4ccc(O)cc4)c3[C@@H]2c2cc(O)c3c(c2)[C@@H](c2cc(O)cc(O)c2)[C@H](c2ccc(O)cc2)O3)cc1 [KOBOPHENOL A]
10 | 92.1 | 30.1 | Oc1ccc(/C=C/c2cc(O)cc(O)c2)cc1 [RESVERATROL]
